# Assay results from US20040029100A1, “Rapid screen to identify p-glycoprotein substrates and high affinity modulators” (priority 2000, published 2004).
# Read-outs that look alike come from different tables or passages of the source. Square brackets hold non-standard residues; d marks the D form. Peptide text beside a SMILES is read from it. * marks the point of attachment. Sta = CC(C)C[C@H](N)[C@@H](O)CC(=O)O; Isovaleryl = CC(C)CC(=O)*; Cbz = O=C(OCc1ccccc1)*; Boc = CC(C)(C)OC(=O)*; OBn = c1ccc(CO*)cc1; OtBu = CC(C)(C)O*
# Legend:
# [1] = target: T1, P-glycoprotein (Pgp) purified from MDR CH^RB30 Chinese hamster ovary cells (Cricetulus griseus, UniProt P21448); assay: Quenching of intrinsic Trp fluorescence of purified Pgp by nucleotides, drugs and peptides; conditions: for ΔFmax: maximal quenching reached at saturation
# T1 sequence (P21448 whole entry): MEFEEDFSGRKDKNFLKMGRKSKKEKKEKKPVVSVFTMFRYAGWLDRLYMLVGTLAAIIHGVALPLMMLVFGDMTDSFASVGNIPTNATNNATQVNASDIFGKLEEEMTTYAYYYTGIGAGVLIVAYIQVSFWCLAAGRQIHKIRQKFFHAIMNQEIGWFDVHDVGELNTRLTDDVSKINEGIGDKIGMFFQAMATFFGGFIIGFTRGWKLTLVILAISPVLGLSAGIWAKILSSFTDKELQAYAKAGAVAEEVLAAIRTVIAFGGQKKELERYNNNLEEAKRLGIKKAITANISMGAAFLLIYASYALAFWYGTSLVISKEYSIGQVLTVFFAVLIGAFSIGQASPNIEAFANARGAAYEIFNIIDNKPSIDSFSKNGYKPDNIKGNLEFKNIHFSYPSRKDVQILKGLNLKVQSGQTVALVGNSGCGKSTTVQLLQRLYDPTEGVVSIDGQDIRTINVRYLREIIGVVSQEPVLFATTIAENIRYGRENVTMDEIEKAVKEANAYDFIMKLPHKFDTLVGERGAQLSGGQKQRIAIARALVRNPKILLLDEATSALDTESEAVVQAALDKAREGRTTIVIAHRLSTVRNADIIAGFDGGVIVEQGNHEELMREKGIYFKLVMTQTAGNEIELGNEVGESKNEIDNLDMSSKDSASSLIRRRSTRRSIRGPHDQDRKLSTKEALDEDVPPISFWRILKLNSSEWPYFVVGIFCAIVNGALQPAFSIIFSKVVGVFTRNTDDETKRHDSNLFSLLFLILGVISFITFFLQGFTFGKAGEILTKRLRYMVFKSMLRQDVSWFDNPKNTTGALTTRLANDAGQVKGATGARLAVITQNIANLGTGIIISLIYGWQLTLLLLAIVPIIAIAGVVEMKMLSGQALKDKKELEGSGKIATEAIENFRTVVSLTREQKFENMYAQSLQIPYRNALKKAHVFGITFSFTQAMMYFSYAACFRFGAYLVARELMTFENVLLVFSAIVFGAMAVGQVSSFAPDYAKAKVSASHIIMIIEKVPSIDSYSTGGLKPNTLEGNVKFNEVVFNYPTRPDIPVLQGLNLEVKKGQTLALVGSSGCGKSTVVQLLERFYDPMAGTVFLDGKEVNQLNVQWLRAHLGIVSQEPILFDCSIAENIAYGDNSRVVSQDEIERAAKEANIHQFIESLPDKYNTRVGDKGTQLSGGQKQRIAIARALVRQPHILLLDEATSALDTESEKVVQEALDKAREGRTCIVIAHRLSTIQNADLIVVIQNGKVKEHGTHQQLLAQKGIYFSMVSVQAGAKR
# Method: (§1) Purification of Pgp. Pgp was purified from plasma membrane of MDR CH^RB30 cells by a modification of the method previously described for CH^RC5 (27). […] Contaminating glycoproteins were removed from the S2 fraction by passing through a concanavalinA-Sepharose 4B column (Pharmacia) equilibrated with 2 mM CHAPS buffer. […] The Pgp preparation was kept on ice and used within 24 h.
# (§2) Steady-state Fluorescence Measurements. Steady-state fluorescence measurements were performed using a Spex Model DM3000 spectrofluorimeter (Spex Industries Inc., Edison, N.J.) at 22° C., with excitation and emission bandpass set to 4 nm. Most fluorescence studies were carried out on solutions of 100 μg/mL Pgp in 2 mM CHAPS buffer, in the presence of 0.5 mg/mL of the phospholipid PMPC (Avanti Polar Lipids, Alabaster, Ala.). PMPC was added as extruded 100 nm unilamellar vesicles (8). With some drugs, the use of a lipid was not required for the fluorescence measurements. The excitation and emission spectra were the average of three scans, and were corrected by subtracting control scans with the same phospholipid buffer in the absence of protein.
# (§3) Quenching Studies using TNP-Nucleotide Derivatives and Drugs. […] Working solutions of TNP-derivatives, and non-peptide drugs and modulators were also prepared in 2 mM CHAPS with 0.5 mg/mL PMPC vesicles, whereas peptide-based drugs and modulators were dissolved in dimethylsulfoxide (DMSO). […] Quenching experiments were performed by successively adding 5 μL aliquots of TNP-derivatives or drug solution to 500 μL of Pgp solution in a 0.5 cm quartz cuvette. After each addition, the sample was excited at 290 nm and the steady-state fluorescence emission was measured at 330 nm. Fluorescence intensities were corrected for dilution, scattering, and the inner filter effect as described elsewhere (8). Control titrations were performed with 30 μM NATA to assess the non-specific quenching of Trp fluorescence by TNP-nucleotide derivatives and drugs.
# (§4) The experimental quenching data were computer-fitted to the following equation as described previously (8)(9): [formula]
# (§5) where (ΔF/F0 100) is the percent quenching (percent change in fluorescence relative to the initial value), following addition of substrate at a concentration [S], and Kd is the dissociation constant. Fitting was carried out using nonlinear regression with the Marquardt-Levenberg algorithm (SigmaPlot, SPSS Inc., Chicago, Ill.), and values of Kd and (ΔFmax/F0 100) were extracted. For biphasic titration curves, each section of the binding curve was fitted to the above equation separately, as described previously (32).
# [2] = target: T1, P-glycoprotein (Pgp) purified from MDR CH^RB30 Chinese hamster ovary cells; assay: Trp fluorescence lifetime of purified Pgp in presence of nucleotides and drugs; set-up: Pgp was purified from plasma membrane of MDR CH^RB30 cells; endogenous in cells; host or cells: MDR CH^RB30 Chinese hamster ovary cells (plasma membrane, CHAPS extraction, concanavalin A-Sepharose pass-through); conditions: Pgp Trp decay, concentration of substance
# Method: as §1
# Fluorescence Lifetime Measurements. Fluorescence decays were measured with a PTI Model C-720 fluorescence lifetime instrument ((28), Photon Technology International Inc., Lawrenceville, N.J.) utilizing a proprietary stroboscopic detection technique (29). […] Fluorescence decays were analyzed with a PTI TimeMaster Pro analysis package using a discrete 1- to 4- exponential fit, 1- to 4-exponential global analysis, or lifetime distribution analysis by the Exponential Series Method (ESM) (30). The quality of fits was judged by chi-square values and weighed residuals.
# [3] = target: P-glycoprotein (Pgp) (Cricetulus griseus, UniProt P21448); assay: in vitro; conditions: Chinese hamster, Kd2
# Chain of P-glycoprotein (Pgp) (P21448 whole entry): as above
# Method: as §1, §2, §3, §4, §5
# [4] = target: Pgp ATPase (Cricetulus griseus, UniProt P21448); assay: Pgp ATPase activity; type: biochemical; conditions: over the range 0.3-0.5 M
# Chain of Pgp ATPase (P21448 whole entry): as above
# [5] = maximal Trp quenching, single or higher affinity component
# [6] = read-out: Kd1, single binding site or high affinity site, 100 μg/mL Pgp, 2 mM CHAPS, 0.5 mg/mL PMPC, 22° C.
# [7] = maximal Trp quenching, lower affinity component
# [8] = Kd1, single binding site or high affinity site, 100 μg/mL Pgp, 2 mM CHAPS, 0.5 mg/mL PMPC, 22° C.
# [9] = read-out: Kd2, lower affinity site of biphasic quench curve
compound,measurement,setting,value
CC[C@]1(O)C[C@@H]2CN(CCc3c([nH]c4ccccc34)[C@@](C(=O)OC)(c3cc4c(cc3OC)N(C)[C@H]3[C@@](O)(C(=O)OC)[C@H](OC(C)=O)[C@]5(CC)C=CCN6CC[C@]43[C@@H]65)C2)C1 [vinblastine],Kd,[1],0.5 ± 0.08 µM
same,ΔFmax1,[1]; [5],17.5 ± 0.82%
same,<tav> (amplitude average lifetime),[2],2.17 ns
same,a1 (pre-exponential value),[2],1.07
same,a2 (pre-exponential value),[2],0.51
same,t1 (fluorescence lifetime),[2],1.1 ns
same,t2 (fluorescence lifetime),[2],4.4 ns
"Nc1ncnc2c1ncn2[C@@H]1O[C@H](COP(=O)([O-])OP(=O)([O-])O)[C@@H](O)[C@H]1O.[Na+].[Na+] [ADP, disodium-ADP]",ΔFmax1,[1]; [5],9.46%
same,ΔFmax,[1],~10%
same,Kd,[1]; [6],330 µM
same,Kd,[1]; single type of binding site,~300 µM
C=C[C@H]1C[N@@]2CC[C@H]1C[C@H]2[C@H](O)c1ccnc2ccc(OC)cc12 [quinine],ΔFmax1,[1],33.5 ± 2.2%
CC(C)[C@@H]1NC(=O)[C@H](C)OC(=O)[C@@H](C(C)C)NC(=O)[C@@H](C(C)C)OC(=O)[C@H](C(C)C)NC(=O)[C@H](C)OC(=O)[C@@H](C(C)C)NC(=O)[C@@H](C(C)C)OC(=O)[C@H](C(C)C)NC(=O)[C@H](C)OC(=O)[C@@H](C(C)C)NC(=O)[C@@H](C(C)C)OC1=O [valinomycin],Kd,[1],0.72 ± 0.084 µM
same,ΔFmax1,[1]; [5],4.14 ± 0.086%
COc1cc2c(c(OC)c1OC)-c1ccc(OC)c(=O)cc1[C@@H](NC(C)=O)CC2 [colchicine],ΔFmax1,[1]; [5],102.2 ± 5.7%
same,<tav> (amplitude average lifetime),[2],2.63 ns
same,a1 (pre-exponential value),[2],0.66
same,a2 (pre-exponential value),[2],0.39
same,t1 (fluorescence lifetime),[2],1.4 ns
same,t2 (fluorescence lifetime),[2],4.7 ns
CCCCCCCCCCCCCCCCCCOP(=O)([O-])OC1CC[N+](C)(C)CC1 [D21266],ΔFmax1,[1]; [5],13.0 ± 1.15%
same,Kd,[1]; [6],20.1 ± 3.4 µM
CCCCCCCCCCCCCCCCOP(=O)([O-])OCC[N+](C)(C)C [mitelfosine],ΔFmax1,[1],12.0 ± 1.0%
same,Kd,[1]; [6],20.6 ± 3.3 µM
CN1CCN(CCCN2c3ccccc3Sc3ccc(C(F)(F)F)cc32)CC1 [trifluoperazine],Kd,[3],16.8 ± 1.6 µM
same,ΔFmax2,[1]; [7],67.7 ± 4.1%
same,ΔFmax1,[1]; [5],18.9 ± 0.87%
same,<tav> (amplitude average lifetime),[2],2.15 ns
same,a1 (pre-exponential value),[2],0.72
same,a2 (pre-exponential value),[2],0.35
same,t1 (fluorescence lifetime),[2],1.1 ns
same,t2 (fluorescence lifetime),[2],4.3 ns
"Nc1ncnc2c1ncn2[C@@H]1O[C@H](COP(=O)(O)OP(=O)([O-])OP(=O)([O-])O)[C@@H](O)[C@H]1O.[Na+].[Na+] [ATP, disodium-ATP]",ΔFmax1,[1]; [5],10.4%
same,ΔFmax,[1],~10%
same,Kd,[1]; [6],280 µM
same,Kd,[1]; single type of binding site,~300 µM
O=c1cc(N2CCOCC2)oc2c(-c3ccccc3)cccc12 [LY294002],Kd,[1]; [8],6.29 ± 0.88 µM
same,Kd,"[1]; Kd2, lower affinity site of biphasic quench curve",11.5 ± 1.5 µM
same,ΔFmax2,[1]; [7],36.2 ± 2.0%
same,ΔFmax1,[1]; [5],29.7 ± 1.6%
CCCCCCCCCCCCCCCCCCOP(=O)(O)OCC[N+]1(C)CCCCC1 [D-20133],ΔFmax1,[1]; [5],12.3 ± 0.89%
same,Kd,[1]; [6],12.8 ± 2.1 µM
rhodamine 123,Kd,[1],6.81 ± 0.71 µM
same,ΔFmax2,[1]; [7],107.2 ± 1.8%
same,ΔFmax1,[1]; [5],47.5 ± 2.5%
same,ΔFmax,[1],~100%
same,Kd,[1]; [9],29.8 ± 1 µM
same,<tav> (amplitude average lifetime),[2],2.73 ns
same,a1 (pre-exponential value),[2],0.65
same,a2 (pre-exponential value),[2],0.43
same,t1 (fluorescence lifetime),[2],1.5 ns
same,t2 (fluorescence lifetime),[2],4.6 ns
C/C=C/C[C@@H](C)C(=O)[C@H]1C(=O)N[C@@H](C(C)C)C(=O)N(C)CC(=O)N(C)[C@@H](CC(C)C)C(=O)N[C@@H](C(C)C)C(=O)N(C)[C@@H](CC(C)C)C(=O)N[C@@H](C)C(=O)N[C@H](C)C(=O)N(C)[C@@H](CC(C)C)C(=O)N(C)[C@@H](CC(C)C)C(=O)N(C)[C@@H](C(C)C)C(=O)N1C [PSC833],Kd,[1],0.081 ± 0.0071 µM
same,ΔFmax1,[1]; [5],4.02 ± 0.079%
CC(C)(C)OC(=O)N[C@@H](CC(=O)OCc1ccccc1)C(=O)N[C@@H](CCCCNC(=O)OCc1ccccc1)C(=O)OC(C)(C)C [reversin 201] (Boc-Asp(OBn)-Lys(Cbz)-OtBu; N-terminus and C-terminus assumed),Kd,[1]; Kd1,0.23 ± 0.02 µM
TNP-ATP,ΔFmax1,[1]; [5],79.6%
same,ΔFmax,[1],~80%
same,Kd,"[1]; nucleotide alone, absence of drug",51 µM
same,Kd,[1]; [6],50.6 µM
same,Kd,[1]; titration following daunorubicin binding,65 µM
same,Kd,[1]; titration following saturation with vinblastine,64 µM
same,<tav> (amplitude average lifetime),[2],2.14 ns
same,a1 (pre-exponential value),[2],0.69
same,a2 (pre-exponential value),[2],0.42
same,t1 (fluorescence lifetime),[2],1.0 ns
same,t2 (fluorescence lifetime),[2],4.0 ns
CCN(CC)c1ccc2c(-c3ccccc3C(=O)O)c3ccc(=[N+](CC)CC)cc-3oc2c1 [rhodamine B],Kd,[1]; [6],4 ± 0.45 µM
same,Kd,[1]; [9],33.2 ± 3.1 µM
COc1cccc2c1C(=O)c1c(O)c3c(c(O)c1C2=O)C[C@@](O)(C(C)=O)C[C@@H]3O[C@H]1C[C@H](N)[C@H](O)[C@H](C)O1 [daunorubicin],Kd,[3],10.7 ± 1.7 µM
same,Kd,[1],2.97 ± 0.38 µM
same,ΔFmax1,[1],22.7 ± 1.3%
same,ΔFmax2,[1],38.2 ± 2.4%
same,<tav> (amplitude average lifetime),[2],2.61 ns
same,a1 (pre-exponential value),[2],0.71
same,a2 (pre-exponential value),[2],0.52
same,t1 (fluorescence lifetime),[2],1.3 ns
same,t2 (fluorescence lifetime),[2],4.4 ns
CC(C)CC(=O)N[C@H](C(=O)N[C@H](C(=O)N[C@@H](CC(C)C)[C@@H](O)CC(=O)N[C@@H](C)C(=O)N[C@@H](CC(C)C)[C@@H](O)CC(=O)O)C(C)C)C(C)C [pepstatin A] (Isovaleryl-VV[Sta]A[Sta]-OH),Kd,[1]; [8],9.53 ± 0.78 µM
same,ΔFmax1,[1]; [5],4.46 ± 0.073%
COC(=O)[C@H](CCCCNC(=O)[C@H](CCC(=O)OCc1ccccc1)NC(=O)OC(C)(C)C)NC(=O)[C@H](CCC(=O)OCc1ccccc1)NC(=O)OC(C)(C)C [reversin 205],Kd,[1]; Kd1,0.37 ± 0.037 µM
same,ΔFmax1,[1]; [5],5.41 ± 0.13%
COc1cccc2c1C(=O)c1c(O)c3c(c(O)c1C2=O)C[C@@](O)(C(=O)CO)C[C@@H]3O[C@H]1C[C@H](N)[C@H](O)[C@H](C)O1 [doxorubicin],Kd,[3],21.6 ± 3.2 µM
same,Kd,[1],5.44 ± 0.55 µM
same,ΔFmax2,[1]; [7],38.7 ± 3.0%
same,ΔFmax1,[1]; [5],19.5 ± 0.90%
tetramethylrosamine,ΔFmax1,[1],21.0 ± 3.3%
same,ΔFmax2,[1],32.8 ± 0.88%
same,<tav> (amplitude average lifetime),[2],3.9 ns
same,a1 (pre-exponential value),[2],2.43
same,a2 (pre-exponential value),[2],1.1
same,t1 (fluorescence lifetime),[2],0.55 ns
"Nc1ncnc2c1ncn2C1OC(COP(=O)(O)OP(=O)(O)NP(=O)(O)O)C(O)C1O (stereo not shown) [AMP-PNP, 5′-adenylylimido-diphosphate]",ΔFmax1,[1]; [5],10.6%
same,ΔFmax,[1],~10%
same,Kd,[1]; single type of binding site,210 µM
C=CC(N)=O [acrylamide],decline in catalytic activity (ATP hydrolysis by Pgp),[4],~20%
CCOc1ccc(-c2nc3ccc(-c4nc5ccc(N6CCN(C)CC6)cc5[nH]4)cc3[nH]2)cc1 [Hoechst 33342],ΔFmax1,[1]; [5],57.2 ± 1.97%
same,Kd,[1]; [6],2.61 ± 0.182 µM
